tested on: KASUMI-2; test: selective drug sensitivity score (sDSS, relative to normal bone marrow) (sDSS (score)); higher = more potent and effective on the cell line relative to normal bone marrow cells; conditions: 72 h
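Also: ALL cell lines in 384-well plates, five doses spanning 10,000-fold, each plate scaled between vehicle and 100 µmol/L benzalkonium chloride controls, sDSS an adapted area-under-curve metric.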

Compound | selective drug sensitivity score
Nc1ncnc2c1c(COc1cccc(Cl)c1)nn2C1CCOCC1 (top concentration 10000 nM) | 2.46
CC1(C)CNc2cc(NC(=O)c3cccnc3NCc3ccncc3)ccc21 [Motesanib] (top concentration 10000 nM) | -0.22
NC(=O)c1cccc(-c2cccc(OC(=O)NC3CCCCC3)c2)c1 [URB597] (top concentration 1000 nM) | -0.46
CCCN(CCC)C(=O)C1=Cc2ccc(-c3ccc(C(=O)N4CCCC4)cc3)cc2N=C(N)C1 [Motolimod] (top concentration 10000 nM) | -4.48
CCCOc1ccn2c(C(C)=O)cc(-c3ccccc3S(C)(=O)=O)c2c1 [GSK2801] (top concentration 10000 nM) | 4.84
Nc1cc(COc2c(Cl)cc(C[C@H](N)C(=O)O)cc2Cl)c2oc(-c3ccccc3)nc2c1 [JPH203] (top concentration 5000 nM) | 0
CC/C(=C(\c1ccccc1)c1ccc(OCCN(C)C)cc1)c1ccccc1 [Tamoxifen] (top concentration 10000 nM) | 5.72
NC(=S)N/N=C/c1ncccc1N [Triapine] (top concentration 10000 nM) | 2.38
C=CCN(/C=C1/C(=O)O[C@H](COC)[C@@]2(C)C1=C(O)C(=O)C1=C2[C@H](OC(C)=O)C[C@]2(C)C(=O)CC[C@@H]12)CC=C [Sonolisib] (top concentration 10000 nM) | -0.76
C[C@H]1CNCCCN1S(=O)(=O)c1cccc2cncc(F)c12 [Ripasudil] (top concentration 10000 nM) | -0.22
C[C@@H](Oc1cc(-c2cnn(C3CCNCC3)c2)cnc1N)c1c(Cl)ccc(F)c1Cl [Crizotinib] (top concentration 1000 nM) | -0.54
CCN(CC)CCCC(C)Nc1ccnc2cc(Cl)ccc12 (stereo not given) [Chloroquine] (top concentration 100000 nM) | -8.14
N#CC(c1ccnc(OCc2ccc(CN3CCOCC3)cc2)n1)c1nc2ccccc2s1 (stereo not given) [Bentamapimod] (top concentration 10000 nM) | -0.46
COc1cc(N2CCC(N3CCN(C)CC3)CC2)ccc1Nc1ncnc(Nc2ccccc2S(=O)(=O)C(C)C)n1 [ASP3026] (top concentration 10000 nM) | -4.04
COCCOc1cnc2ccn([C@H](C)c3nnc4c(F)cc(-c5cnn(C)c5)cn34)c(=O)c2c1 [AMG-337] (top concentration 10000 nM) | 2.14
Cc1cnc(NC(=O)Nc2cc(Br)c(C)cc2OC[C@@H]2CNCCO2)cn1 [Rabusertib] (top concentration 1000 nM) | -0.74
CNC(=O)c1ccc(-c2cnc3ncc(Cc4ccc5ncccc5c4)n3n2)cc1F [Capmatinib] (top concentration 1000 nM) | -0.06
COc1cc2/c(=N/c3ccc(Br)cc3F)nc[nH]c2cc1OCC1CCN(C)CC1 [Vandetanib] (top concentration 1000 nM) | -0.22

tested on: LC4-1; test: as above; conditions: 72 h

Compound | selective drug sensitivity score
Nc1ncnc2c1c(COc1cccc(Cl)c1)nn2C1CCOCC1 (top concentration 10000 nM) | 0.26
CC1(C)CNc2cc(NC(=O)c3cccnc3NCc3ccncc3)ccc21 [Motesanib] (top concentration 10000 nM) | -0.22
NC(=O)c1cccc(-c2cccc(OC(=O)NC3CCCCC3)c2)c1 [URB597] (top concentration 1000 nM) | 0.44
CCCN(CCC)C(=O)C1=Cc2ccc(-c3ccc(C(=O)N4CCCC4)cc3)cc2N=C(N)C1 [Motolimod] (top concentration 10000 nM) | -3.58
CCCOc1ccn2c(C(C)=O)cc(-c3ccccc3S(C)(=O)=O)c2c1 [GSK2801] (top concentration 10000 nM) | 0.24
Nc1cc(COc2c(Cl)cc(C[C@H](N)C(=O)O)cc2Cl)c2oc(-c3ccccc3)nc2c1 [JPH203] (top concentration 5000 nM) | 0
CC/C(=C(\c1ccccc1)c1ccc(OCCN(C)C)cc1)c1ccccc1 [Tamoxifen] (top concentration 10000 nM) | 4.12
NC(=S)N/N=C/c1ncccc1N [Triapine] (top concentration 10000 nM) | 1.78
C=CCN(/C=C1/C(=O)O[C@H](COC)[C@@]2(C)C1=C(O)C(=O)C1=C2[C@H](OC(C)=O)C[C@]2(C)C(=O)CC[C@@H]12)CC=C [Sonolisib] (top concentration 10000 nM) | -0.56
C[C@H]1CNCCCN1S(=O)(=O)c1cccc2cncc(F)c12 [Ripasudil] (top concentration 10000 nM) | -0.22
C[C@@H](Oc1cc(-c2cnn(C3CCNCC3)c2)cnc1N)c1c(Cl)ccc(F)c1Cl [Crizotinib] (top concentration 1000 nM) | -0.54
CCN(CC)CCCC(C)Nc1ccnc2cc(Cl)ccc12 (stereo not given) [Chloroquine] (top concentration 100000 nM) | -3.74
N#CC(c1ccnc(OCc2ccc(CN3CCOCC3)cc2)n1)c1nc2ccccc2s1 (stereo not given) [Bentamapimod] (top concentration 10000 nM) | 2.34
COc1cc(N2CCC(N3CCN(C)CC3)CC2)ccc1Nc1ncnc(Nc2ccccc2S(=O)(=O)C(C)C)n1 [ASP3026] (top concentration 10000 nM) | -0.44
COCCOc1cnc2ccn([C@H](C)c3nnc4c(F)cc(-c5cnn(C)c5)cn34)c(=O)c2c1 [AMG-337] (top concentration 10000 nM) | -0.06
Cc1cnc(NC(=O)Nc2cc(Br)c(C)cc2OC[C@@H]2CNCCO2)cn1 [Rabusertib] (top concentration 1000 nM) | 0.16
CNC(=O)c1ccc(-c2cnc3ncc(Cc4ccc5ncccc5c4)n3n2)cc1F [Capmatinib] (top concentration 1000 nM) | 0.64
COc1cc2/c(=N/c3ccc(Br)cc3F)nc[nH]c2cc1OCC1CCN(C)CC1 [Vandetanib] (top concentration 1000 nM) | -0.22

tested on: MOLT-16; test: as above; conditions: 72 h

Compound | selective drug sensitivity score
Nc1ncnc2c1c(COc1cccc(Cl)c1)nn2C1CCOCC1 (top concentration 10000 nM) | -0.64
CC1(C)CNc2cc(NC(=O)c3cccnc3NCc3ccncc3)ccc21 [Motesanib] (top concentration 10000 nM) | -0.22
NC(=O)c1cccc(-c2cccc(OC(=O)NC3CCCCC3)c2)c1 [URB597] (top concentration 1000 nM) | 2.34
CCCN(CCC)C(=O)C1=Cc2ccc(-c3ccc(C(=O)N4CCCC4)cc3)cc2N=C(N)C1 [Motolimod] (top concentration 10000 nM) | -2.78
CCCOc1ccn2c(C(C)=O)cc(-c3ccccc3S(C)(=O)=O)c2c1 [GSK2801] (top concentration 10000 nM) | -0.16
Nc1cc(COc2c(Cl)cc(C[C@H](N)C(=O)O)cc2Cl)c2oc(-c3ccccc3)nc2c1 [JPH203] (top concentration 5000 nM) | 0
CC/C(=C(\c1ccccc1)c1ccc(OCCN(C)C)cc1)c1ccccc1 [Tamoxifen] (top concentration 10000 nM) | 2.82
NC(=S)N/N=C/c1ncccc1N [Triapine] (top concentration 10000 nM) | 4.68
C=CCN(/C=C1/C(=O)O[C@H](COC)[C@@]2(C)C1=C(O)C(=O)C1=C2[C@H](OC(C)=O)C[C@]2(C)C(=O)CC[C@@H]12)CC=C [Sonolisib] (top concentration 10000 nM) | -0.76
C[C@H]1CNCCCN1S(=O)(=O)c1cccc2cncc(F)c12 [Ripasudil] (top concentration 10000 nM) | -0.22
C[C@@H](Oc1cc(-c2cnn(C3CCNCC3)c2)cnc1N)c1c(Cl)ccc(F)c1Cl [Crizotinib] (top concentration 1000 nM) | -0.54
CCN(CC)CCCC(C)Nc1ccnc2cc(Cl)ccc12 (stereo not given) [Chloroquine] (top concentration 100000 nM) | -3.14
N#CC(c1ccnc(OCc2ccc(CN3CCOCC3)cc2)n1)c1nc2ccccc2s1 (stereo not given) [Bentamapimod] (top concentration 10000 nM) | 4.04
COc1cc(N2CCC(N3CCN(C)CC3)CC2)ccc1Nc1ncnc(Nc2ccccc2S(=O)(=O)C(C)C)n1 [ASP3026] (top concentration 10000 nM) | -1.54
COCCOc1cnc2ccn([C@H](C)c3nnc4c(F)cc(-c5cnn(C)c5)cn34)c(=O)c2c1 [AMG-337] (top concentration 10000 nM) | -0.06
Cc1cnc(NC(=O)Nc2cc(Br)c(C)cc2OC[C@@H]2CNCCO2)cn1 [Rabusertib] (top concentration 1000 nM) | -0.14
CNC(=O)c1ccc(-c2cnc3ncc(Cc4ccc5ncccc5c4)n3n2)cc1F [Capmatinib] (top concentration 1000 nM) | 0.04
COc1cc2/c(=N/c3ccc(Br)cc3F)nc[nH]c2cc1OCC1CCN(C)CC1 [Vandetanib] (top concentration 1000 nM) | -0.22

tested on: ALL-SIL; test: as above; conditions: 72 h

Compound | selective drug sensitivity score
Nc1ncnc2c1c(COc1cccc(Cl)c1)nn2C1CCOCC1 (top concentration 10000 nM) | -0.64
CC1(C)CNc2cc(NC(=O)c3cccnc3NCc3ccncc3)ccc21 [Motesanib] (top concentration 10000 nM) | -0.22
NC(=O)c1cccc(-c2cccc(OC(=O)NC3CCCCC3)c2)c1 [URB597] (top concentration 1000 nM) | -0.46
CCCN(CCC)C(=O)C1=Cc2ccc(-c3ccc(C(=O)N4CCCC4)cc3)cc2N=C(N)C1 [Motolimod] (top concentration 10000 nM) | -3.48
CCCOc1ccn2c(C(C)=O)cc(-c3ccccc3S(C)(=O)=O)c2c1 [GSK2801] (top concentration 10000 nM) | -0.36
Nc1cc(COc2c(Cl)cc(C[C@H](N)C(=O)O)cc2Cl)c2oc(-c3ccccc3)nc2c1 [JPH203] (top concentration 5000 nM) | 0
CC/C(=C(\c1ccccc1)c1ccc(OCCN(C)C)cc1)c1ccccc1 [Tamoxifen] (top concentration 10000 nM) | 3.12
NC(=S)N/N=C/c1ncccc1N [Triapine] (top concentration 10000 nM) | 6.78
C=CCN(/C=C1/C(=O)O[C@H](COC)[C@@]2(C)C1=C(O)C(=O)C1=C2[C@H](OC(C)=O)C[C@]2(C)C(=O)CC[C@@H]12)CC=C [Sonolisib] (top concentration 10000 nM) | 2.64
C[C@H]1CNCCCN1S(=O)(=O)c1cccc2cncc(F)c12 [Ripasudil] (top concentration 10000 nM) | 0.78
C[C@@H](Oc1cc(-c2cnn(C3CCNCC3)c2)cnc1N)c1c(Cl)ccc(F)c1Cl [Crizotinib] (top concentration 1000 nM) | 5.46
CCN(CC)CCCC(C)Nc1ccnc2cc(Cl)ccc12 (stereo not given) [Chloroquine] (top concentration 100000 nM) | -0.74
N#CC(c1ccnc(OCc2ccc(CN3CCOCC3)cc2)n1)c1nc2ccccc2s1 (stereo not given) [Bentamapimod] (top concentration 10000 nM) | 2.34
COc1cc(N2CCC(N3CCN(C)CC3)CC2)ccc1Nc1ncnc(Nc2ccccc2S(=O)(=O)C(C)C)n1 [ASP3026] (top concentration 10000 nM) | 0.16
COCCOc1cnc2ccn([C@H](C)c3nnc4c(F)cc(-c5cnn(C)c5)cn34)c(=O)c2c1 [AMG-337] (top concentration 10000 nM) | -0.06
Cc1cnc(NC(=O)Nc2cc(Br)c(C)cc2OC[C@@H]2CNCCO2)cn1 [Rabusertib] (top concentration 1000 nM) | -0.74
CNC(=O)c1ccc(-c2cnc3ncc(Cc4ccc5ncccc5c4)n3n2)cc1F [Capmatinib] (top concentration 1000 nM) | -0.06
COc1cc2/c(=N/c3ccc(Br)cc3F)nc[nH]c2cc1OCC1CCN(C)CC1 [Vandetanib] (top concentration 1000 nM) | 2.68

tested on: MHH-CALL-2; test: as above; conditions: 72 h

Compound | selective drug sensitivity score
Nc1ncnc2c1c(COc1cccc(Cl)c1)nn2C1CCOCC1 (top concentration 10000 nM) | 1.76
CC1(C)CNc2cc(NC(=O)c3cccnc3NCc3ccncc3)ccc21 [Motesanib] (top concentration 10000 nM) | -0.22
NC(=O)c1cccc(-c2cccc(OC(=O)NC3CCCCC3)c2)c1 [URB597] (top concentration 1000 nM) | 0.54
CCCN(CCC)C(=O)C1=Cc2ccc(-c3ccc(C(=O)N4CCCC4)cc3)cc2N=C(N)C1 [Motolimod] (top concentration 10000 nM) | -3.98
CCCOc1ccn2c(C(C)=O)cc(-c3ccccc3S(C)(=O)=O)c2c1 [GSK2801] (top concentration 10000 nM) | -0.16
Nc1cc(COc2c(Cl)cc(C[C@H](N)C(=O)O)cc2Cl)c2oc(-c3ccccc3)nc2c1 [JPH203] (top concentration 5000 nM) | 0
CC/C(=C(\c1ccccc1)c1ccc(OCCN(C)C)cc1)c1ccccc1 [Tamoxifen] (top concentration 10000 nM) | 0.82
NC(=S)N/N=C/c1ncccc1N [Triapine] (top concentration 10000 nM) | 3.48
C=CCN(/C=C1/C(=O)O[C@H](COC)[C@@]2(C)C1=C(O)C(=O)C1=C2[C@H](OC(C)=O)C[C@]2(C)C(=O)CC[C@@H]12)CC=C [Sonolisib] (top concentration 10000 nM) | 0.34
C[C@H]1CNCCCN1S(=O)(=O)c1cccc2cncc(F)c12 [Ripasudil] (top concentration 10000 nM) | -0.02
C[C@@H](Oc1cc(-c2cnn(C3CCNCC3)c2)cnc1N)c1c(Cl)ccc(F)c1Cl [Crizotinib] (top concentration 1000 nM) | -0.54
CCN(CC)CCCC(C)Nc1ccnc2cc(Cl)ccc12 (stereo not given) [Chloroquine] (top concentration 100000 nM) | 1.06
N#CC(c1ccnc(OCc2ccc(CN3CCOCC3)cc2)n1)c1nc2ccccc2s1 (stereo not given) [Bentamapimod] (top concentration 10000 nM) | 4.94
COc1cc(N2CCC(N3CCN(C)CC3)CC2)ccc1Nc1ncnc(Nc2ccccc2S(=O)(=O)C(C)C)n1 [ASP3026] (top concentration 10000 nM) | -0.84
COCCOc1cnc2ccn([C@H](C)c3nnc4c(F)cc(-c5cnn(C)c5)cn34)c(=O)c2c1 [AMG-337] (top concentration 10000 nM) | 7.54
Cc1cnc(NC(=O)Nc2cc(Br)c(C)cc2OC[C@@H]2CNCCO2)cn1 [Rabusertib] (top concentration 1000 nM) | 0.66
CNC(=O)c1ccc(-c2cnc3ncc(Cc4ccc5ncccc5c4)n3n2)cc1F [Capmatinib] (top concentration 1000 nM) | -0.06
COc1cc2/c(=N/c3ccc(Br)cc3F)nc[nH]c2cc1OCC1CCN(C)CC1 [Vandetanib] (top concentration 1000 nM) | 4.38

Source: the supplement of paper PMC8967900
